The text below walks through data of PubChem BioAssay (NCI).

Structures are written as SMILES.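 Growth conditions: 96-well plates. Treatment: test compound, 48 hours, 5 concentrations. Analysis: linear interpolation between bracketing concentrations; unreached endpoints set to highest concentration. The concentration for 50% growth inhibition is given as GI50. TGI: concentration producing complete growth inhibition.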 Some results are limits rather than exact numbers.

Common to all, as to assay: NCI tumour cell line growth inhibition, 48 h
The test system of test [1] is EKVX NSCLC.
Test [2] has as its system HCC-2998 colon.
In test [3] the test system is NCI-H23 lung.
The test system of test [4] is NCI-H460 lung.
The test system of test [5] is OVCAR-5 ovarian.
The subject of test [6] is SK-MEL-28 melanoma.
Test [7] deals with SK-MEL-5 melanoma.
Test [8] deals with SNB-75 CNS.
The subject of test [9] is HL-60(TB) leukemia.
Test [10] has as its system MDA-MB-231 breast.

Turning to `COC(=O)c1oc([N+](=O)[O-])c(-c2ccccc2)c1-c1ccccc1`, the TGI in test [1], in test [2], in test [3], in test [4], in test [5] and in test [6] was over 100 µM each time. The TGI in test [7] and in test [8] was over 100 µM throughout.
Turning to `Cc1ccc(C)c(N2C(=O)C(=O)C(c3nc4ccccc4s3)C(=O)C2=O)c1`, the TGI in test [1], in [2], in test [9], in test [3], in [4] and in test [5] was over 100 µM in each case. Also, the TGI in test [6], in [7] and in [8] was over 100 µM in each case.
Take `OCC(O)COc1ccc(F)cc1` (configuration not stated): the TGI in test [1], in test [2], in test [9], in [3], in test [4] and in [5] was over 100 µM in each case. For the same compound, the TGI in [6], in test [7] and in test [8] was over 100 µM each time.
For the compound `C=CCC1=C2CCCCC2CCC1=O` (configuration not stated), the TGI in [1], in test [9], in [3], in test [4], in test [5] and in test [6] was over 100 µM throughout. The TGI in test [7] and in [8] was over 100 µM throughout.
Take `COC(=O)CCC(=O)C(CC(=O)OC)C(=O)CCC(=O)NCCc1ccccc1` (configuration not stated): the TGI in test [1], in [2], in [9], in [3], in test [4] and in test [5] was over 100 µM in each case. For the same compound, the TGI in test [6], in [7] and in test [8] was over 100 µM each time.
Regarding `CC1=CC=C2C(C)(C)CC[C@@H]3OC(=O)[C@H]1[C@]23C`, the TGI in [1], in test [2], in test [9], in [3], in test [5] and in [6] was over 100 µM throughout. For the same compound, the TGI in test [7] and in [8] was over 100 µM throughout.
Consider `CC[C@H]1[C@@H](C)C=C[C@@H](C)N1S(=O)(=O)c1ccc(C)cc1`, for which the TGI in test [1] is over 100 µM; in test [9], 52 µM; in [3], over 100 µM; in [5] it was over 100 µM; in test [6] it was over 100 µM; in test [7], over 100 µM. Further, the TGI in [8] was over 100 µM.
Take `ClCCN(CCCl)c1ccc(OCc2ccccc2)cc1`: the GI50 was 1.84 µM in [9]; 16.6 µM in test [10]; 4.88 µM in test [3]; 0.603 µM in test [4]; 29 µM in [5]; 13.8 µM in test [6]. The GI50 is 6.62 µM in test [7] and 1.81 µM in test [8]. Besides, the TGI in [9] is 23.7 µM; in test [10], 48.6 µM; in test [3] it was 36.6 µM; in test [4], 19.8 µM; in test [5], over 100 µM; in test [6], 40.9 µM. In addition, the figures for the TGI in test [7] and in test [8] were 20.6 µM and 12 µM, respectively.
Regarding `CCC(CO)COC(=O)/C=C/C(=O)OCC(CC)CO` (configuration not stated), the TGI in [1] was over 100 µM; in [2], over 100 µM; in [9], 45.5 µM; in test [3], over 100 µM; in test [4], over 100 µM; in [5], over 100 µM. Besides, the TGI in [6], in [7] and in test [8] was over 100 µM in each case.
With `Cc1cc2c(=O)cc(-c3ccc(O)cc3)oc2c(C(=O)O)c1C`, the TGI in test [1], in test [2], in [9], in test [3], in [4] and in test [5] was over 100 µM in each case. For the same compound, the TGI in [6], in test [7] and in test [8] was over 100 µM in each case.
Consider `CCOC(=O)c1sc(Nc2cc(Cl)ccc2Cl)nc1C`, for which the TGI in test [1], in test [2], in test [9], in test [3], in [4] and in test [5] was over 100 µM each time. The TGI in test [6] and in [8] was over 100 µM throughout.
As to `O=C(O)COc1ccc2c3c1C(=O)CCC3CO2` (configuration not stated), the TGI in test [1], in test [2], in test [9], in test [3], in test [4] and in test [5] was over 100 µM in each case. Moreover, the TGI in [6] and in [7] was over 100 µM each time.
As for `CC(=O)OC1C(COC(N)=O)OC(n2c(-c3ccc(C)cc3)cc(-c3ccccc3)c(C#N)c2=O)C(OC(C)=O)C1OC(C)=O` (configuration not stated), the TGI in test [1], in test [2], in test [3], in [4], in [5] and in [6] was over 100 µM in each case. Moreover, the TGI in test [7] and in test [8] was over 100 µM throughout.
Take `CN1C(=O)CNS1(=O)=O`: the TGI in [2], in test [9], in test [3], in test [4], in test [5] and in test [6] was over 100 µM each time. Moreover, the TGI in [7] and in test [8] was over 100 µM each time.
Consider `COC1OC(CO)C(O)C(NC(=O)N(C)N=O)C1O` (configuration not stated), for which the TGI in [1], in test [2], in [9], in test [3], in [4] and in test [6] was over 100 µM throughout. The TGI in [7] and in [8] was over 100 µM in each case.
